Results: ChEMBL document CHEMBL3885881, “DrugMatrix”

Species: Rattus norvegicus
Test: DrugMatrix - Regimen: Daily Repeat
Type: toxicity, organism-based, Sprague-Dawley
Set-up: regimen Daily Repeat, gender Male, age 6-8 weeks
Settings: in vivo, sc, route subcutaneous, vehicle 100 % WATER; for ABSOLUTE BASOPHIL / ABSOLUTE EOSINOPHIL / ABSOLUTE LYMPHOCYTE / ABSOLUTE MONOCYTE / ABSOLUTE SEGMENTED NEUTROPHIL / BASOPHIL / EOSINOPHIL / ERYTHROCYTE COUNT / HEMATOCRIT / HEMOGLOBIN / LEUKOCYTE COUNT / LYMPHOCYTE / MEAN CORPUSCULAR HEMOGLOBIN / MEAN CORPUSCULAR HEMOGLOBIN CONCENTRATION / MEAN CORPUSCULAR VOLUME / MONOCYTE / NEUTROPHIL / NUCLEATED RED BLOOD CELLS / PLATELET COUNT: tissue Blood; for ALANINE AMINOTRANSFERASE / ALBUMIN / ALKALINE PHOSPHATASE / ASPARTATE AMINOTRANSFERASE / BLOOD UREA NITROGEN / CARBON DIOXIDE / CHLORIDE / CHOLESTEROL / CREATINE PHOSPHOKINASE / CREATININE / GLUCOSE / LACTATE DEHYDROGENASE / LIPASE / PHOSPHORUS / POTASSIUM / SODIUM / TOTAL BILIRUBIN / TOTAL PROTEIN / URIC ACID: tissue Plasma
[1] = 20 mg/kg, 72 h, dose level Low, time 3 day
[2] = 20 mg/kg, 120 h, dose level Low, time 5 day
[3] = 71 mg/kg, 72 h, dose level High, time 3 day
[4] = 71 mg/kg, 120 h, dose level High, time 5 day

CCN(CC)CC(=O)Nc1c(C)cccc1C [LIDOCAINE]
ABSOLUTE BASOPHIL [1]: 0 CELLS/uL
ABSOLUTE EOSINOPHIL [1]: 58 CELLS/uL
ABSOLUTE LYMPHOCYTE [1]: 13101.33 CELLS/uL
ABSOLUTE MONOCYTE [1]: 107 CELLS/uL
ABSOLUTE SEGMENTED NEUTROPHIL [1]: 1100.33 CELLS/uL
BASOPHIL [1]: 0%
EOSINOPHIL [1]: 0.33%
ERYTHROCYTE COUNT [1]: 5.32 x10E6/uL
HEMATOCRIT [1]: 35.17%
HEMOGLOBIN [1]: 13.77 G/DL
LEUKOCYTE COUNT [1]: 14.37 x10E3/uL
LYMPHOCYTE [1]: 91.33%
MEAN CORPUSCULAR HEMOGLOBIN [1]: 25.9 pg
MEAN CORPUSCULAR HEMOGLOBIN CONCENTRATION [1]: 39.17 G/DL
MEAN CORPUSCULAR VOLUME [1]: 66.2 fL
MONOCYTE [1]: 0.67%
NEUTROPHIL [1]: 7.67%
NUCLEATED RED BLOOD CELLS [1]: 0 /100WBC
PLATELET COUNT [1]: 1245 x10E3/uL
ALANINE AMINOTRANSFERASE [1]: 52.67 u/L
ALBUMIN [1]: 4.23 G/DL
ALKALINE PHOSPHATASE [1]: 369 u/L
ASPARTATE AMINOTRANSFERASE [1]: 87.33 u/L
BLOOD UREA NITROGEN [1]: 16 mg/dL
CARBON DIOXIDE [1]: 26.67 mmol/L
CHLORIDE [1]: 102.67 MEQ/L
CHOLESTEROL [1]: 79.33 mg/dL
CREATINE PHOSPHOKINASE [1]: 215.67 u/L
CREATININE [1]: 0.21 mg/dL
GLUCOSE [1]: 154.67 mg/dL
LACTATE DEHYDROGENASE [1]: 355.67 u/L
LIPASE [1]: 9.67 u/L
PHOSPHORUS [1]: 15.3 mg/dL
POTASSIUM [1]: 7.3 MEQ/L
SODIUM [1]: 148.67 MEQ/L
TOTAL BILIRUBIN [1]: 0.23 mg/dL
TOTAL PROTEIN [1]: 6.03 G/DL
URIC ACID [1]: 1.9 mg/dL
ABSOLUTE BASOPHIL [2]: 0 CELLS/uL
ABSOLUTE EOSINOPHIL [2]: 102.67 CELLS/uL
ABSOLUTE LYMPHOCYTE [2]: 14629.33 CELLS/uL
ABSOLUTE MONOCYTE [2]: 338.67 CELLS/uL
ABSOLUTE SEGMENTED NEUTROPHIL [2]: 1862.67 CELLS/uL
BASOPHIL [2]: 0%
EOSINOPHIL [2]: 0.67%
ERYTHROCYTE COUNT [2]: 5.48 x10E6/uL
HEMATOCRIT [2]: 33.93%
HEMOGLOBIN [2]: 13.57 G/DL
LEUKOCYTE COUNT [2]: 16.93 x10E3/uL
LYMPHOCYTE [2]: 86.67%
MEAN CORPUSCULAR HEMOGLOBIN [2]: 24.77 pg
MEAN CORPUSCULAR HEMOGLOBIN CONCENTRATION [2]: 40 G/DL
MEAN CORPUSCULAR VOLUME [2]: 61.93 fL
MONOCYTE [2]: 2%
NEUTROPHIL [2]: 10.67%
NUCLEATED RED BLOOD CELLS [2]: 0 /100WBC
PLATELET COUNT [2]: 1256.33 x10E3/uL
ALANINE AMINOTRANSFERASE [2]: 59.33 u/L
ALBUMIN [2]: 3.73 G/DL
ALKALINE PHOSPHATASE [2]: 375.67 u/L
ASPARTATE AMINOTRANSFERASE [2]: 92 u/L
BLOOD UREA NITROGEN [2]: 17.67 mg/dL
CARBON DIOXIDE [2]: 26 mmol/L
CHLORIDE [2]: 108 MEQ/L
CHOLESTEROL [2]: 77.33 mg/dL
CREATINE PHOSPHOKINASE [2]: 284 u/L
CREATININE [2]: 0.28 mg/dL
GLUCOSE [2]: 183.33 mg/dL
LACTATE DEHYDROGENASE [2]: 154.67 u/L
LIPASE [2]: 7.67 u/L
PHOSPHORUS [2]: 13.6 mg/dL
POTASSIUM [2]: 6.31 MEQ/L
SODIUM [2]: 149.97 MEQ/L
TOTAL BILIRUBIN [2]: 0.2 mg/dL
TOTAL PROTEIN [2]: 5.93 G/DL
URIC ACID [2]: 2.2 mg/dL
ABSOLUTE BASOPHIL [3]: 0 CELLS/uL
ABSOLUTE EOSINOPHIL [3]: 49.33 CELLS/uL
ABSOLUTE LYMPHOCYTE [3]: 11993.67 CELLS/uL
ABSOLUTE MONOCYTE [3]: 172.33 CELLS/uL
ABSOLUTE SEGMENTED NEUTROPHIL [3]: 684.67 CELLS/uL
BASOPHIL [3]: 0%
EOSINOPHIL [3]: 0.33%
ERYTHROCYTE COUNT [3]: 5.73 x10E6/uL
HEMATOCRIT [3]: 35.87%
HEMOGLOBIN [3]: 14.23 G/DL
LEUKOCYTE COUNT [3]: 12.9 x10E3/uL
LYMPHOCYTE [3]: 92.67%
MEAN CORPUSCULAR HEMOGLOBIN [3]: 24.83 pg
MEAN CORPUSCULAR HEMOGLOBIN CONCENTRATION [3]: 39.7 G/DL
MEAN CORPUSCULAR VOLUME [3]: 62.57 fL
MONOCYTE [3]: 1.33%
NEUTROPHIL [3]: 5.67%
NUCLEATED RED BLOOD CELLS [3]: 0 /100WBC
PLATELET COUNT [3]: 1268.67 x10E3/uL
ALANINE AMINOTRANSFERASE [3]: 46.33 u/L
ALBUMIN [3]: 4.37 G/DL
ALKALINE PHOSPHATASE [3]: 401 u/L
ASPARTATE AMINOTRANSFERASE [3]: 83.67 u/L
BLOOD UREA NITROGEN [3]: 14.67 mg/dL
CARBON DIOXIDE [3]: 31.33 mmol/L
CHLORIDE [3]: 101 MEQ/L
CHOLESTEROL [3]: 76 mg/dL
CREATINE PHOSPHOKINASE [3]: 167 u/L
CREATININE [3]: 0.16 mg/dL
GLUCOSE [3]: 163.67 mg/dL
LACTATE DEHYDROGENASE [3]: 124.67 u/L
LIPASE [3]: 8.67 u/L
PHOSPHORUS [3]: 15.9 mg/dL
POTASSIUM [3]: 7.01 MEQ/L
SODIUM [3]: 145.9 MEQ/L
TOTAL BILIRUBIN [3]: 0.17 mg/dL
TOTAL PROTEIN [3]: 6.07 G/DL
URIC ACID [3]: 1.8 mg/dL
ABSOLUTE BASOPHIL [4]: 0 CELLS/uL
ABSOLUTE EOSINOPHIL [4]: 73.33 CELLS/uL
ABSOLUTE LYMPHOCYTE [4]: 17902.33 CELLS/uL
ABSOLUTE MONOCYTE [4]: 276 CELLS/uL
ABSOLUTE SEGMENTED NEUTROPHIL [4]: 1781.67 CELLS/uL
BASOPHIL [4]: 0%
EOSINOPHIL [4]: 0.33%
ERYTHROCYTE COUNT [4]: 5.66 x10E6/uL
HEMATOCRIT [4]: 36.7%
HEMOGLOBIN [4]: 14.53 G/DL
LEUKOCYTE COUNT [4]: 20.03 x10E3/uL
LYMPHOCYTE [4]: 89%
MEAN CORPUSCULAR HEMOGLOBIN [4]: 25.67 pg
MEAN CORPUSCULAR HEMOGLOBIN CONCENTRATION [4]: 39.6 G/DL
MEAN CORPUSCULAR VOLUME [4]: 64.93 fL
MONOCYTE [4]: 1.33%
NEUTROPHIL [4]: 9.33%
NUCLEATED RED BLOOD CELLS [4]: 0 /100WBC
PLATELET COUNT [4]: 1384.67 x10E3/uL
ALANINE AMINOTRANSFERASE [4]: 60 u/L
ALBUMIN [4]: 4.13 G/DL
ALKALINE PHOSPHATASE [4]: 376.33 u/L
ASPARTATE AMINOTRANSFERASE [4]: 98.33 u/L
BLOOD UREA NITROGEN [4]: 15.33 mg/dL
CARBON DIOXIDE [4]: 33.67 mmol/L
CHLORIDE [4]: 101 MEQ/L
CHOLESTEROL [4]: 68.33 mg/dL
CREATINE PHOSPHOKINASE [4]: 240.33 u/L
CREATININE [4]: 0.42 mg/dL
GLUCOSE [4]: 147.33 mg/dL
LACTATE DEHYDROGENASE [4]: 198 u/L
LIPASE [4]: 10.67 u/L
PHOSPHORUS [4]: 14.23 mg/dL
POTASSIUM [4]: 6.88 MEQ/L
SODIUM [4]: 148.27 MEQ/L
TOTAL BILIRUBIN [4]: 0.2 mg/dL
TOTAL PROTEIN [4]: 6.17 G/DL
URIC ACID [4]: 1.4 mg/dL
